Measured values reported in patent US11166940B2, “Treatment of cardiac disorders by blocking SK4 potassium channel” (Ramot at Tel-Aviv University Ltd., priority 2016, dated 2021).
Several values for one entry are separate records, joined by “and”; a condition that tells them apart may be missing. Identical values can stand only once.

What was measured:
SAN cells = assay: Spontaneous APs / pacing rate of isolated SAN cells from WT mice (patch clamp); assay type: cell-based, mouse; settings: 2 μM clotrimazole, current clamp; reversible during washout
Procedure: WT and CASQ2 D307H KI mice were anesthetized with isofluorane and sacrificed by cervical dislocation. The heart was rapidly removed and transferred into Tyrode solution containing heparin. […] The area was cleaned, cut into small strips and washed into a Low Calcium Solution, containing (in mM): 140 NaCl, 5.4 KCl, 0.5 MgCl2, 1.2 KH2PO4, 5 HEPES-NaOH, 50 taurine, 5.5 glucose (pH 6.9). The osmolarity was adjusted if needed to 315 mOsm.
The same solution, supplemented with 1 mg/ml albumin, 200 μM CaCl2, collagenase Type I (Worthington) or liberase TH (Roche), protease (Sigma) and elastase (Sigma) was used for enzymatic digestion as previously described [See, Mesirca, P., et al. Nat Commun 5, 4664 (2014)]. In this step, the tissue was gently resuspended with a polished Pasteur pipette in this solution for 9-13 minutes at 37° C. SAN samples were then washed three times in a modified “Kraftbrühe” solution, containing (in mM): 70 glutamic acid, 80 KOH, 20 KCl, 10 γ-Hydroxybutyric acid sodium salt, 10 KH2PO4, 10 HEPES-KOH, 10 taurine, 1 mg/ml albumin, 0.1 EGTA-KOH (pH 7.2). The same solution was used to re-suspend the single cells with a pipet by vigorous up and down, between 3 to 5 minutes at 37° C. Cells were then gradually exposed to increasing concentrations of calcium, following a “Ca^2+ readaptation” protocol [Mesirca et al., 2014, supra]. Experiments were performed the same day at 33° C.
In all experiments, the coverslips were perfused at 33° C. with an external solution containing (in mM): 140 NaCl, 4 KCl, 11 Glucose, 1.2 MgCl2, 1.8 CaCl2, 5.5 HEPES titrated to pH 7.4 with NaOH and adjusted at 320 mOsm with sucrose.
The spontaneous automaticity of isolated SAN cells was recorded under perforated-patch conditions by adding 30 μM β-escin49 to the intracellular solution containing (in mM): 130 KCl, 10 NaCl, 10 HEPES, 0.2 EGTA-KOH, 2 MgATP, 6.6 Phosphocreatine, 0.05 cAMP and 1 μM free Ca^2+ (pH 7.2). To record SK4 K+ current, a voltage ramp protocol was applied. SAN and hiPS-CMs were held at −40 mV and −20 mV, respectively to substantially inactivate voltage-gated Na^+ and Ca^2+ currents. Cells were stepped from −90 mV to +60 mV for 150 ms. Then, a cocktail (solution 1) containing (in mM) 0.3 cadmium, 0.025 ZD-7288 and 0.01 E-4031 was applied extracellularly to inhibit residual L-type and T-type voltage-gated Ca2+ currents, If and the IKr currents, respectively. […] For voltage-clamp recording of SAN cells, the intracellular solution was the same to that described above for recording spontaneous automaticity.
The spontaneous electric activity of the cell was recorded in the current clamp configuration of the patch clamp technique before (black trace) and during (violet trace) exposure to 2 μM clotrimazole.
FIG. 5E (Left) presents representative traces of spontaneous APs recorded in single SAN cell from WT mice.

WT mice = assay: In vivo telemetric ECG recording in WT (normal) mice; parameters: species or system mouse; settings: 20 mg/kg IP
Description: (§1) Telemetric ambulatory long-term ECG recordings, analogous to Holter monitoring in humans, were obtained with implantable transmitters. […] An implantable 3.5 grams wireless radiofrequency transmitter (DSI MM USA, device weight 3.8 grams) was aseptically inserted into a subcutaneous tissue pocket in the back as described in Katz, G., et al. Heart Rhythm 7, 1676-1682 (2010) and Kurtzwald-Josefson, E., et al. Heart Rhythm 11, 1471-1479 (2014)]. Animals were allowed to recover after surgery for at least 24 hours before any experiments. Baseline electrocardiograms (ECG) were obtained 15 minutes after IP injection of the appropriate vehicle (peanut oil or peanut oil supplemented with ethanol 1%). […] Telemetered ECG tracings were obtained in conscious mice at rest for one minute and during peak exercise (i.e. the first minute of recovery). In the treadmill exercise, mice were forced to exercise on a rodent treadmill; gradually increasing the speed up to a maximum of 15 m/minute. Ventricular tachycardia (VT) was defined as four or more consecutive ventricular beats. If this phenotype was consecutively observed for more than 15 seconds, it was defined as “sustained” ventricular tachycardia (SVT). Shorter VTs were characterized as “non-sustained” (NSVT). All other ventricular arrhythmias, such as premature beats, ventricular bigeminy, couplets and triplets were all defined as ventricular premature contractions (VPCs).
For this, a heart telemetry device was implanted in norma mice for continuous ECG recording at rest and during treadmill exercise. For each session, continuous ECG recording was performed with the same animals receiving first intraperitoneal (IP) injection of vehicle (peanut oil) and then 20 mg/kg clotrimazole.
(§2) A heart telemetry device was implanted in WT, CASQ2-D307H KI and CASQ2 KO mice for continuous ECG recording at rest and during treadmill exercise. For each session, continuous ECG recording was performed with the same animals receiving first intraperitoneal (IP) injection of vehicle (peanut oil) and then the SK4 channel blocker.

CASQ2-D307H KI mice = assay: In vivo telemetric ECG recording in CASQ2-D307H KI mice; parameters: species or system mouse; settings: 20 mg/kg IP; for number of mice, most severe ECG form: NSVT / number of mice, most severe ECG form: Normal (sinusal rhythm) / number of mice, most severe ECG form: SVT / number of mice, most severe ECG form: VPC: n=5 Clotrimazole, n=12 TRAM-34
Description: as §1, §2
(§3) The types of arrhythmic features were classified following their seriousness: sinusal rhythm (normal), ventricular premature contractions (VPC), non-sustained ventricular tachycardia (NSVT) and sustained ventricular tachycardia (SVT). For each mouse was considered the most severe form of arrhythmia recorded under ECG.

CASQ2 KO mice = assay: In vivo telemetric ECG recording in CASQ2 KO mice; parameters: species or system mouse; settings: 20 mg/kg IP; for number of mice, most severe ECG form: NSVT / number of mice, most severe ECG form: Normal (sinusal rhythm) / number of mice, most severe ECG form: SVT / number of mice, most severe ECG form: VPC: n=6
Description: as §1, §2, §3

SK4 current = target: T1, SK4 current (Homo sapiens, UniProt O15554); settings: 2 μM clotrimazole added to solution 1; voltage ramp −90 to +40 mV; cited from earlier work
T1 construct: electrophysiological characterization of the SK4 current in a single cardiac hESC-CM; endogenous in cells; host or cells: hESC-CMs (human embryonic stem cell-derived cardiomyocytes)
T1 sequence (O15554 whole entry): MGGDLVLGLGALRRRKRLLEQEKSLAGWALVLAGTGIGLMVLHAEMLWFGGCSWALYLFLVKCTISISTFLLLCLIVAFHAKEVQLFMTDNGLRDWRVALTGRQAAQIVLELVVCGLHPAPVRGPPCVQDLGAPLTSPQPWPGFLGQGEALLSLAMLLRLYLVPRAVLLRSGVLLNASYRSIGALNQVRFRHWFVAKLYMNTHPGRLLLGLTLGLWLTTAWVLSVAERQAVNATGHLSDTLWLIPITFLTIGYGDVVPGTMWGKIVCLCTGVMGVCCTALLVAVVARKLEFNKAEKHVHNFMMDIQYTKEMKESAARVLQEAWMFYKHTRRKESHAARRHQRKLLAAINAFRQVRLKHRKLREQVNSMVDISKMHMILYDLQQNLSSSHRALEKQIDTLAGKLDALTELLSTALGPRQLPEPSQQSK

hESC-CMs = settings: 2 μM clotrimazole, current clamp; cited from earlier work

Clc1ccccc1C(c1ccccc1)(c1ccccc1)n1ccnc1 [Clotrimazole]
firing rate (SAN cells): strongly decreases the firing rate of the cells
prolongation of the PR interval (WT mice; WT mice at rest): 27%
reduction of resting heart rate (WT mice; WT mice at rest, vs vehicle in same animal): 16.1±6.1% and 16±6%
PR interval (WT mice; normal mice at rest, n=10 (vehicle 29.4±0.9)): 37.0 ± 3.5 ms
resting heart rate (WT mice; normal mice at rest, n=10 (vehicle 718±16)): 604±43 bpm
sinus rate (heart rate) (WT mice; normal mice during treadmill exercise, n=10 (vehicle 724±18)): 605±42 bpm
PR interval (WT mice; normal mice following treadmill exercise, n=10 (vehicle 29.27±0.94), not significant): 37.44 ± 4.03 ms
mice converted to normal sinus rhythm (CASQ2-D307H KI mice; KI mice at rest): 3 out of 5
heart rate and PR interval (CASQ2-D307H KI mice; KI mice, basal conditions and during treadmill exercise): bradycardia and PR prolongation were noticed
number of mice, most severe ECG form: NSVT (CASQ2-D307H KI mice; KI at rest): 0
number of mice, most severe ECG form: Normal (sinusal rhythm) (CASQ2-D307H KI mice; KI at rest): 3
number of mice, most severe ECG form: SVT (CASQ2-D307H KI mice; KI at rest): 0
number of mice, most severe ECG form: VPC (CASQ2-D307H KI mice; KI at rest): 2
number of mice, most severe ECG form: NSVT (CASQ2-D307H KI mice; KI during Exercise): 2
number of mice, most severe ECG form: Normal (sinusal rhythm) (CASQ2-D307H KI mice; KI during Exercise): 0
number of mice, most severe ECG form: SVT (CASQ2-D307H KI mice; KI during Exercise): 1
number of mice, most severe ECG form: VPC (CASQ2-D307H KI mice; KI during Exercise): 2
heart rate and PR interval (CASQ2 KO mice; KO mice, basal conditions and during treadmill exercise): bradycardia and PR prolongation were noticed
number of mice, most severe ECG form: NSVT (CASQ2 KO mice; KO at rest): 0
number of mice, most severe ECG form: Normal (sinusal rhythm) (CASQ2 KO mice; KO at rest): 4
number of mice, most severe ECG form: SVT (CASQ2 KO mice; KO at rest): 0
number of mice, most severe ECG form: VPC (CASQ2 KO mice; KO at rest): 2
number of mice, most severe ECG form: NSVT (CASQ2 KO mice; KO during exercise): 3
number of mice, most severe ECG form: Normal (sinusal rhythm) (CASQ2 KO mice; KO during exercise): 0
number of mice, most severe ECG form: SVT (CASQ2 KO mice; KO during exercise): 1
number of mice, most severe ECG form: VPC (CASQ2 KO mice; KO during exercise): 2
clotrimazole-sensitive/SK4 current (linear voltage trace) (SK4 current): decreased the linear voltage trace in both sides
duration of the action potentials (APD50) (hESC-CMs): did not significantly affect
firing rate (hESC-CMs): decreased the firing rate of the cells
membrane potential (MDP) / pacing (hESC-CMs): depolarized the membrane of the cell (MDP) until a pacing arrest
